According to PubChem BioAssay (NCI):
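Values below derive from 48-hour exposures of cells grown in 96-well plates, with endpoints linearly interpolated between the two concentrations bracketing the appropriate inhibition level. TGI: concentration producing complete growth inhibition.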

Key:
Experiment in all cases: NCI tumour cell line growth inhibition, 48 h
MALME-3M melanoma = test system: MALME-3M melanoma
ACHN renal = test system: ACHN renal
PC-3 prostate = test system: PC-3 prostate
K-562 leukemia = test system: K-562 leukemia
SF-295 CNS = test system: SF-295 CNS
SF-539 CNS = test system: SF-539 CNS
SK-OV-3 ovarian = test system: SK-OV-3 ovarian
BT-549 breast = test system: BT-549 breast
NCI-H23 lung = test system: NCI-H23 lung
MCF7 breast = test system: MCF7 breast
TK-10 renal = test system: TK-10 renal
RXF 393 renal = test system: RXF 393 renal
CCRF-CEM leukemia = test system: CCRF-CEM leukemia
SN12C renal = test system: SN12C renal
A549 NSCLC = test system: A549 NSCLC
HCT-15 colon = test system: HCT-15 colon
U251 CNS = test system: U251 CNS
HL-60(TB) leukemia = test system: HL-60(TB) leukemia
DU-145 prostate = test system: DU-145 prostate
MDA-MB-435 = test system: MDA-MB-435
MDA-N = test system: MDA-N
SR leukemia = test system: SR leukemia
OVCAR-8 ovarian = test system: OVCAR-8 ovarian
SF-268 CNS = test system: SF-268 CNS
LOX IMVI melanoma = test system: LOX IMVI melanoma
SNB-75 CNS = test system: SNB-75 CNS
NCI-H460 lung = test system: NCI-H460 lung
SK-MEL-2 melanoma = test system: SK-MEL-2 melanoma
SW-620 colon = test system: SW-620 colon
OVCAR-5 ovarian = test system: OVCAR-5 ovarian
EKVX NSCLC = test system: EKVX NSCLC
HOP-92 NSCLC = test system: HOP-92 NSCLC
OVCAR-3 ovarian = test system: OVCAR-3 ovarian
HS 578T breast = test system: HS 578T breast
SNB-19 CNS = test system: SNB-19 CNS
MOLT-4 leukemia = test system: MOLT-4 leukemia
M14 melanoma = test system: M14 melanoma
NCI-H522 lung = test system: NCI-H522 lung
OVCAR-4 ovarian = test system: OVCAR-4 ovarian
UACC-257 melanoma = test system: UACC-257 melanoma
KM12 colon = test system: KM12 colon
HCC-2998 colon = test system: HCC-2998 colon
786-0 renal = test system: 786-0 renal
UO-31 renal = test system: UO-31 renal
NCI-H226 lung = test system: NCI-H226 lung
HT29 colon = test system: HT29 colon
IGROV1 ovarian = test system: IGROV1 ovarian
CAKI-1 renal = test system: CAKI-1 renal
NCI/ADR-RES ovarian = test system: NCI/ADR-RES ovarian
T-47D breast = test system: T-47D breast
A498 renal = test system: A498 renal
RPMI-8226 leukemia = test system: RPMI-8226 leukemia
SK-MEL-5 melanoma = test system: SK-MEL-5 melanoma
COLO 205 colon = test system: COLO 205 colon
HCT-116 colon = test system: HCT-116 colon
SK-MEL-28 melanoma = test system: SK-MEL-28 melanoma
UACC-62 melanoma = test system: UACC-62 melanoma
MDA-MB-231 breast = test system: MDA-MB-231 breast
HOP-62 NSCLC = test system: HOP-62 NSCLC

Measured: TGI

CC#CCCCC1(C)CCNC1=S (configuration not stated)
not listed: IGROV1 ovarian | CAKI-1 renal | NCI/ADR-RES ovarian | T-47D breast | A498 renal | RPMI-8226 leukemia | SK-MEL-5 melanoma | COLO 205 colon | HCT-116 colon | SK-MEL-28 melanoma | UACC-62 melanoma | MDA-MB-231 breast | HOP-62 NSCLC
> 10 µM: all other assays above

Cc1[nH]c2nccn2c(=O)c1CCO
not listed: SK-MEL-2 melanoma | NCI-H522 lung | HCC-2998 colon
> 10 µM: all other assays above
